The numbers were not newly measured in PMC4895201 (Journal of natural products, 2009), which cites them from elsewhere.

Data set [1] concerns breast and prostate xenografts. The following applies: compared with KF (3).
For data set [2], the system named is various solid cell lines.
In data set [3] the test system is epidermal growth factor receptor (ErbB family). The following applies: early research.

Turning to “(4S)- methylhexanoic kahalalide F [isoKF (4)]”, the “in vivo efficacy against breast and prostate xenografts” value in data set [1] is “enhanced efficacy against breast and prostate xenografts”. Further, in data set [2], the “antitumor activity, in vitro and in vivo” value is “significant in vitro and in vivo antitumor activity against various solid cell lines”.
Turning to kahalalide F [KF (3)], in data set [2], the “antitumor activity, in vitro and in vivo” value is “significant in vitro and in vivo antitumor activity against various solid cell lines”. In data set [3], the “blockade of epidermal growth factor receptor (ErbB family)” value is “blocked the epidermal growth factor receptor (ErbB family)”.
